Measured values as given in ChEMBL document CHEMBL1201862, “PubChem BioAssay data set” (2004).
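How tested: cells in 96-well plates exposed to compound for 48 hours at five concentrations. GI50 marks 50% less growth.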 The source made the active and inactive calls. Cut-off read from the data, not from the text of the source: active = GI50 up to about 1.1 µM and inactive = higher.

Assays:
Experiment in all cases: DTP human tumour cell line panel, 48 h
SNB-75 = tested on: SNB-75
SF-295 = tested on: SF-295
TK-10 = tested on: TK-10
SR = tested on: SR
NCI/ADR-RES = tested on: NCI/ADR-RES
SF-268 = tested on: SF-268
IGROV-1 = tested on: IGROV-1
NCI-H23 = tested on: NCI-H23
ACHN = tested on: ACHN
T47D = tested on: T47D
786-0 = tested on: 786-0
Malme-3M = tested on: Malme-3M
KM12 = tested on: KM12
UACC-62 = tested on: UACC-62
OVCAR-8 = tested on: OVCAR-8
M14 = tested on: M14
HCT-15 = tested on: HCT-15
NCI-H460 = tested on: NCI-H460
HCT-116 = tested on: HCT-116
BT-549 = tested on: BT-549

CC[N+](C)(CC)CCC(O)(c1ccccc1)c1ccccc1
GI50 (SNB-75): > 100 µM (inactive)
GI50 (SF-295): > 100 µM (inactive)
GI50 (TK-10): > 100 µM (inactive)
GI50 (SR): > 100 µM (inactive)
GI50 (NCI/ADR-RES): > 100 µM (inactive)
GI50 (SF-268): > 100 µM (inactive)
GI50 (IGROV-1): > 100 µM (inactive)
GI50 (NCI-H23): > 100 µM (inactive)
GI50 (ACHN): > 100 µM (inactive)
GI50 (T47D): > 100 µM (inactive)
GI50 (786-0): > 100 µM (inactive)
GI50 (Malme-3M): > 100 µM (inactive)
GI50 (KM12): > 100 µM (inactive)
GI50 (UACC-62): > 100 µM (inactive)
GI50 (OVCAR-8): > 100 µM (inactive)
GI50 (M14): > 100 µM (inactive)
GI50 (HCT-15): > 100 µM
GI50 (NCI-H460): > 100 µM (inactive)
GI50 (HCT-116): > 100 µM (inactive)
GI50 (BT-549): > 100 µM (inactive)

Brc1ccc2[nH]cc(-c3csc(-c4ccccn4)n3)c2c1
GI50 (SNB-75): 16.9 µM (inactive)
GI50 (SF-295): 6.68 µM (inactive)
GI50 (TK-10): 24.2 µM (inactive)
GI50 (SR): 15.4 µM (inactive)
GI50 (NCI/ADR-RES): > 100 µM (inactive)
GI50 (SF-268): 30.6 µM (inactive)
GI50 (IGROV-1): 23 µM (inactive)
GI50 (NCI-H23): 47.4 µM (inactive)
GI50 (ACHN): 5.85 µM (inactive)
GI50 (T47D): 10.7 µM (inactive)
GI50 (786-0): 7.93 µM (inactive)
GI50 (Malme-3M): 22.1 µM (inactive)
GI50 (KM12): 9.16 µM (inactive)
GI50 (UACC-62): 8.18 µM (inactive)
GI50 (OVCAR-8): 26.9 µM (inactive)
GI50 (M14): 22.2 µM (inactive)
GI50 (HCT-15): 16.9 µM
GI50 (NCI-H460): 6.59 µM (inactive)
GI50 (HCT-116): 15.1 µM (inactive)
GI50 (BT-549): > 89.3 µM (inactive)

CCOC(=O)c1nc2ccccc2nc1NCc1ccc(Cl)cc1Cl
GI50 (SNB-75): 23.6 µM (inactive)
GI50 (SF-295): > 100 µM (inactive)
GI50 (TK-10): > 100 µM (inactive)
GI50 (SR): 60.7 µM (inactive)
GI50 (NCI/ADR-RES): > 100 µM (inactive)
GI50 (SF-268): > 100 µM (inactive)
GI50 (IGROV-1): > 100 µM (inactive)
GI50 (NCI-H23): > 100 µM (inactive)
GI50 (ACHN): > 100 µM (inactive)
GI50 (T47D): > 100 µM (inactive)
GI50 (786-0): > 100 µM (inactive)
GI50 (Malme-3M): > 100 µM (inactive)
GI50 (KM12): > 100 µM (inactive)
GI50 (UACC-62): > 100 µM (inactive)
GI50 (OVCAR-8): > 100 µM (inactive)
GI50 (M14): > 100 µM (inactive)
GI50 (HCT-15): > 100 µM
GI50 (NCI-H460): 35 µM (inactive)
GI50 (HCT-116): > 100 µM (inactive)
GI50 (BT-549): > 100 µM (inactive)

O=C1Nc2ccccc2/C1=N/NC(=S)NCc1ccccn1
GI50 (SNB-75): 0.454 µM (active)
GI50 (SF-295): 0.507 µM (active)
GI50 (TK-10): 2.52 µM (inactive)
GI50 (SR): < 0.01 µM (active)
GI50 (NCI/ADR-RES): 0.418 µM (active)
GI50 (SF-268): 0.136 µM (active)
GI50 (IGROV-1): 0.0721 µM (active)
GI50 (NCI-H23): 0.533 µM (active)
GI50 (ACHN): 0.2 µM (active)
GI50 (T47D): 0.0343 µM (active)
GI50 (786-0): 0.355 µM (active)
GI50 (Malme-3M): 2.29 µM (inactive)
GI50 (KM12): 0.698 µM (active)
GI50 (UACC-62): 0.341 µM (active)
GI50 (OVCAR-8): 0.346 µM (active)
GI50 (M14): 0.312 µM (active)
GI50 (HCT-15): 0.0326 µM
GI50 (NCI-H460): 0.172 µM (active)
GI50 (HCT-116): < 0.01 µM (active)
GI50 (BT-549): 1.09 µM (active)
